PubChem BioAssay AID330 (DTP/NCI, 2004)
Several values for one entry are separate records, joined by “and”; a condition that tells them apart may be missing. Identical values can stand only once. Inconclusive results and toxic doses are left out. The calls were made as follows: active = survival T/C of 150% or more; inactive = T/C below 125% in these data.

Test system: P388 leukemia ip, CD2F1 mice, survival T/C
Test: NCI In Vivo Anticancer Drug Screen. Data for tumor model P388 Leukemia (intraperitoneal) in CD2F1 (CDF1) mice
Conditions: endpoint: median survival time, higher = longer survival
Procedure, shortened: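 Mice carrying the transplanted tumor received test compound or vehicle. Survival was recorded in each group, and the value is the treated-group measurement divided by that of the vehicle-treated control group.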

[1] = dose: 50.0 mg/kg/injection, schedule: Q01DX009 (ip), vehicle: saline
[2] = dose: 100.0 mg/kg/injection, schedule: Q01DX009 (ip), vehicle: saline
[3] = dose: 200.0 mg/kg/injection, schedule: Q01DX009 (ip), vehicle: saline
[4] = dose: 60.0 mg/kg/injection, schedule: Q01DX005 (ip), vehicle: saline with Tween-80
[5] = dose: 120.0 mg/kg/injection, schedule: Q01DX005 (ip), vehicle: saline with Tween-80
[6] = dose: 240.0 mg/kg/injection, schedule: Q01DX005 (ip), vehicle: saline with Tween-80
[7] = dose: 50.0 mg/kg/injection, schedule: Q01DX005 (ip), vehicle: saline with Tween-80
[8] = dose: 100.0 mg/kg/injection, schedule: Q01DX005 (ip), vehicle: saline with Tween-80
[9] = dose: 200.0 mg/kg/injection, schedule: Q01DX005 (ip), vehicle: saline with Tween-80
[10] = dose: 50.0 mg/kg/injection, schedule: Q01DX005 (ip), vehicle: saline
[11] = dose: 100.0 mg/kg/injection, schedule: Q01DX005 (ip), vehicle: saline
[12] = dose: 50.0 mg/kg/injection, schedule: Q01DX009 (ip), vehicle: Klucel (hydroxypropylcellulose) (HPC)
[13] = dose: 100.0 mg/kg/injection, schedule: Q01DX009 (ip), vehicle: Klucel (hydroxypropylcellulose) (HPC)
[14] = dose: 200.0 mg/kg/injection, schedule: Q01DX009 (ip), vehicle: Klucel (hydroxypropylcellulose) (HPC)

Measured: T/C

NS(=O)(=O)c1cc([N+](=O)[O-])ccc1C(=O)OC1CCCCC1
inactive: dose: 50.0 mg/kg/injection, schedule: Q01DX005 (ip), vehicle: Klucel (hydroxypropylcellulose) (HPC) 104 % of control | dose: 100.0 mg/kg/injection, schedule: Q01DX005 (ip), vehicle: Klucel (hydroxypropylcellulose) (HPC) 113 % of control | dose: 200.0 mg/kg/injection, schedule: Q01DX005 (ip), vehicle: Klucel (hydroxypropylcellulose) (HPC) 92 % of control

NC(=Nc1ccccc1)c1ccccn1
inactive: [1] 95 % of control | [2] 94 % of control | [3] 95 % of control

COc1cc2c(oc(=O)c3cc(C)cc(OC)c32)c2c(C3OC(C)C(O)C(C)(O)C3O)ccc(O)c12 (configuration not stated)
inactive: dose: 1.56 mg/kg/injection, schedule: Q01DX005 (ip), vehicle: DMSO 101 % of control | dose: 3.12 mg/kg/injection, schedule: Q01DX005 (ip), vehicle: DMSO 105 % of control and 109 % of control | dose: 6.25 mg/kg/injection, schedule: Q01DX005 (ip), vehicle: DMSO 114 % of control | dose: 12.5 mg/kg/injection, schedule: Q01DX005 (ip), vehicle: DMSO 123 % of control

O=C1CS(=O)(=O)C(c2cccs2)N1CCN1C(=O)CS(=O)(=O)C1c1cccs1 (configuration not stated)
inactive: dose: 100.0 mg/kg/injection, schedule: Q04DX002 (ip), vehicle: saline with Tween-80 97 % of control and 94 % of control | dose: 200.0 mg/kg/injection, schedule: Q04DX002 (ip), vehicle: saline with Tween-80 94 % of control and 93 % of control | dose: 400.0 mg/kg/injection, schedule: Q04DX002 (ip), vehicle: saline with Tween-80 92 % of control and 90 % of control

CC(C)C1SCC(=O)N1c1nncs1 (configuration not stated)
inactive: [4] 103 % of control | [5] 112 % of control | [6] 107 % of control

O=C([O-])CC(=O)[O-].[Cu+2].[OH3+].[OH3+]
inactive: dose: 15.0 mg/kg/injection, schedule: Q01DX005 (ip), vehicle: Klucel (hydroxypropylcellulose) (HPC) 99 % of control

Oc1ccc(Br)cc1C=NCCS
inactive: dose: 15.0 mg/kg/injection, schedule: Q01DX005 (ip), vehicle: saline with Tween-80 97 % of control | dose: 30.0 mg/kg/injection, schedule: Q01DX005 (ip), vehicle: saline with Tween-80 94 % of control | [6] 89 % of control

C=C1SC(=Nc2cccc(OC)c2)N(c2nc(Cl)nc(Cl)n2)C1(C)C
inactive: [1] 99 % of control | [2] 102 % of control | [3] 98 % of control

Oc1ccc2ccccc2c1/C=N/N=c1\[nH][nH]/c(=N\N=C\c2c(O)ccc3ccccc23)c2ccccc12
inactive: [7] 98 % of control | [8] 97 % of control | [9] 99 % of control

COC(=O)C1(C)CCCC2(C)C3=CC(=O)OC3(OC)CCC12 (configuration not stated)
inactive: dose: 2.5 mg/kg/injection, schedule: Q01DX009 (ip), vehicle: saline with Tween-80 107 % of control | dose: 5.0 mg/kg/injection, schedule: Q01DX009 (ip), vehicle: saline with Tween-80 101 % of control | dose: 10.0 mg/kg/injection, schedule: Q01DX009 (ip), vehicle: saline with Tween-80 103 % of control

O=C(Nc1ccc(N=C=S)cc1Cl)c1ccc2ccccc2c1O
inactive: dose: 100.0 mg/kg/injection, schedule: Q04DX003 (ip), vehicle: Klucel (hydroxypropylcellulose) (HPC) 101 % of control and 105 % of control | dose: 200.0 mg/kg/injection, schedule: Q04DX003 (ip), vehicle: Klucel (hydroxypropylcellulose) (HPC) 100 % of control and 106 % of control | dose: 400.0 mg/kg/injection, schedule: Q04DX003 (ip), vehicle: Klucel (hydroxypropylcellulose) (HPC) 110 % of control and 123 % of control

O=C(CCl)N1CCN(c2ccccn2)CC1
inactive: [4] 109 % of control | [5] 110 % of control | [6] 116 % of control

O=C(C1=Cc2ccccc2OC1)N1CCN(c2cccc(Cl)c2)CC1
inactive: dose: 100.0 mg/kg/injection, schedule: Q04DX003 (ip), vehicle: saline with Tween-80 98 % of control | dose: 200.0 mg/kg/injection, schedule: Q04DX003 (ip), vehicle: saline with Tween-80 102 % of control | dose: 400.0 mg/kg/injection, schedule: Q04DX003 (ip), vehicle: saline with Tween-80 93 % of control

Cn1c(-c2ccccc2)c(C(=O)CC(=O)CN2CCOCC2)c2ccccc21
inactive: dose: 100.0 mg/kg/injection, schedule: Q01DX001 (ip), vehicle: saline 98 % of control | dose: 200.0 mg/kg/injection, schedule: Q01DX001 (ip), vehicle: saline 108 % of control | dose: 400.0 mg/kg/injection, schedule: Q01DX001 (ip), vehicle: saline 97 % of control

CC(=O)Nc1cc(C)ns1
inactive: dose: 25.0 mg/kg/injection, schedule: Q01DX009 (ip), vehicle: saline 101 % of control | [1] 109 % of control | [2] 101 % of control | [3] 89 % of control

c1ccc2c(N3CCCCC3)ncnc2c1
inactive: [10] 107 % of control | [11] 100 % of control

CCN(CC)CCCC(C)NCC#CCNC(C)CCCN(CC)CC (configuration not stated)
inactive: dose: 1.56 mg/kg/injection, schedule: Q01DX009 (ip), vehicle: water 105 % of control | dose: 3.13 mg/kg/injection, schedule: Q01DX009 (ip), vehicle: water 108 % of control | dose: 6.25 mg/kg/injection, schedule: Q01DX009 (ip), vehicle: water 104 % of control | dose: 12.5 mg/kg/injection, schedule: Q01DX009 (ip), vehicle: water 105 % of control

COC(=O)C1=C(N)C(C#N)=C(C)C(C)(O)C1 (configuration not stated)
inactive: [12] 99 % of control | [13] 97 % of control | [14] 108 % of control

COSOC
inactive: dose: 7.5 mg/kg/injection, schedule: Q04DX003 (ip), vehicle: Klucel (hydroxypropylcellulose) (HPC) 105 % of control | dose: 15.0 mg/kg/injection, schedule: Q04DX003 (ip), vehicle: Klucel (hydroxypropylcellulose) (HPC) 104 % of control | dose: 30.0 mg/kg/injection, schedule: Q04DX003 (ip), vehicle: Klucel (hydroxypropylcellulose) (HPC) 98 % of control

NNS(=O)(=O)c1ccc2ccccc2c1
inactive: dose: 12.5 mg/kg/injection, schedule: Q01DX009 (ip), vehicle: other 102 % of control | dose: 25.0 mg/kg/injection, schedule: Q01DX009 (ip), vehicle: other 102 % of control and 86 % of control | dose: 50.0 mg/kg/injection, schedule: Q01DX009 (ip), vehicle: other 86 % of control | dose: 100.0 mg/kg/injection, schedule: Q01DX009 (ip), vehicle: other 102 % of control and 95 % of control | dose: 200.0 mg/kg/injection, schedule: Q01DX009 (ip), vehicle: other 101 % of control and 95 % of control

O=C(O)C(O)C(O)C1[O][Sb]([c]2ccc([N+](=O)[O-])cc2)[O]C1CO (configuration not stated)
inactive: [10] 98 % of control | [11] 107 % of control | dose: 200.0 mg/kg/injection, schedule: Q01DX005 (ip), vehicle: saline 118 % of control

COc1cc([C@@H]2c3cc4c(cc3[C@H](O)[C@H]3COC[C@@H]23)OCO4)cc(OC)c1OC
inactive: [7] 103 % of control | [8] 108 % of control | [9] 103 % of control

COC(=O)N1N=C(c2ccccc2)C(C(=O)OC)(C(=O)OC)c2ccccc21
inactive: [4] 93 % of control | [5] 87 % of control

O=C(O)c1ccccc1Nc1cccc(C(F)(F)F)c1
inactive: dose: 12.5 mg/kg/injection, schedule: Q01DX009 (ip), vehicle: saline with Tween-80 103 % of control | dose: 25.0 mg/kg/injection, schedule: Q01DX009 (ip), vehicle: saline with Tween-80 98 % of control | dose: 50.0 mg/kg/injection, schedule: Q01DX009 (ip), vehicle: saline with Tween-80 97 % of control | dose: 100.0 mg/kg/injection, schedule: Q01DX009 (ip), vehicle: saline with Tween-80 107 % of control

CN(C)/N=C1\C(=O)Nc2ccc(Br)cc21
inactive: [12] 100 % of control | [13] 113 % of control | [14] 108 % of control
